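Assay format: 96-well plates, 48-hour exposure. GI50: concentration for 50% inhibition of growth. TGI denotes the concentration required for complete inhibition of growth.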

These results are taken from PubChem BioAssay (NCI).

Among the test systems are A549 NSCLC; CCRF-CEM leukemia; KM20L2 colon; LXFL 529 NSCLC; M14 melanoma; SN12C renal; SW-620 colon; SNB-75 CNS; UACC-257 melanoma; PC-3 prostate.
Assay in all cases: NCI anticancer screen, dose series, 48 h

As to `NC(CCSCCF)C(=O)O` (stereo unspecified), the TGI in the test on A549 NSCLC, in the test on CCRF-CEM leukemia, with KM20L2 colon, with LXFL 529 NSCLC, in the test with M14 melanoma and in the test on SN12C renal was over 100 µM in each case. Besides, in the test on SW-620 colon, the TGI is over 100 µM.
For the compound `COC(=O)c1ccc(N/C=C(/C#N)c2ccsc2)cc1`, the TGI with A549 NSCLC is 40.3 µM; in the test on CCRF-CEM leukemia it was over 100 µM; in the test with KM20L2 colon, 28.1 µM; with LXFL 529 NSCLC it was 37.5 µM; in the test with SNB-75 CNS, 18.9 µM; in the test with SW-620 colon it was 54.7 µM. This compound showed a TGI in the test on UACC-257 melanoma of over 100 µM.
In the case of `COc1cc2ccnc(-c3n[nH]c4cc(OC)c(OC)cc34)c2cc1OC`, the TGI with A549 NSCLC, in the test on CCRF-CEM leukemia, in the test on KM20L2 colon, with LXFL 529 NSCLC, in the test on M14 melanoma and in the test with SN12C renal was over 100 µM in each case. The TGI with SNB-75 CNS, in the test with SW-620 colon and in the test on UACC-257 melanoma was over 100 µM in each case.
Take `CC(=O)Nc1ccc(S(=O)(=O)N/N=C(\C)CN2C(=O)c3ccccc3C2=O)cc1`: the TGI with A549 NSCLC, with CCRF-CEM leukemia, with KM20L2 colon, with LXFL 529 NSCLC, with M14 melanoma and in the test with SN12C renal was over 100 µM each time. Besides, the TGI with SNB-75 CNS, in the test with SW-620 colon and in the test with UACC-257 melanoma was over 100 µM each time.
Consider `CC(C)CCCC(C)[C@H]1CCC2C3CC=C4C[C@@H](OC(=O)CC(CC(=O)[O-])C(=O)[O-])CC[C@]4(C)C3CC[C@@]21C.N.N.[Pt+4]` (stereo partly specified), for which the GI50 in the test on A549 NSCLC, with CCRF-CEM leukemia, in the test with KM20L2 colon, with M14 melanoma, in the test on SN12C renal and with SNB-75 CNS was over 100 µM in each case. The GI50 in the test with SW-620 colon and in the test with UACC-257 melanoma was over 100 µM in each case. Besides, the TGI with A549 NSCLC, in the test on CCRF-CEM leukemia, with KM20L2 colon, in the test with M14 melanoma, in the test on SN12C renal and with SNB-75 CNS was over 100 µM in each case. The TGI in the test on SW-620 colon and with UACC-257 melanoma was over 100 µM throughout.
`O=C(CC(=O)c1cccc2ccccc12)C(=O)Nc1nccs1`: the TGI with A549 NSCLC, in the test on CCRF-CEM leukemia, with KM20L2 colon, with LXFL 529 NSCLC, with M14 melanoma and with SN12C renal was over 100 µM in each case. Further, the TGI in the test with SNB-75 CNS, in the test on SW-620 colon and in the test with UACC-257 melanoma was over 100 µM throughout.
For `CC/C(=N/O)C(C)C(=O)CCC(=O)Nc1ccc(Cl)cc1` (stereo unspecified), the TGI in the test on A549 NSCLC, with CCRF-CEM leukemia, in the test on KM20L2 colon, with LXFL 529 NSCLC, in the test on M14 melanoma and in the test on SN12C renal was over 100 µM throughout. The TGI with SNB-75 CNS, in the test with SW-620 colon and in the test on UACC-257 melanoma was over 100 µM each time.
As for `OCC(O)C(OC1OC(CO)C(O)C(O)C1O)c1nn(-c2ccc(Cl)cc2)c2nc3cc(Cl)c(Cl)cc3nc12` (stereo unspecified), the TGI with CCRF-CEM leukemia, in the test with KM20L2 colon, with LXFL 529 NSCLC, with M14 melanoma, with SN12C renal and in the test on SNB-75 CNS was over 100 µM each time. The TGI with UACC-257 melanoma is over 100 µM.
Turning to `NC(=S)N/N=C1/C(=O)N(c2ccccc2)C(=O)C1C(=O)Nc1ccccc1` (stereo unspecified), the TGI in the test on A549 NSCLC, with KM20L2 colon, in the test on LXFL 529 NSCLC, in the test on M14 melanoma, in the test on SN12C renal and in the test with SNB-75 CNS was over 100 µM throughout. Moreover, the TGI in the test with SW-620 colon and in the test with UACC-257 melanoma was over 100 µM each time.
For `CC(=O)NC(CCCCN(Cc1ccccc1)C(=O)N(C)N=O)C(=O)NCc1ccccc1` (stereo unspecified), the TGI in the test with A549 NSCLC, in the test on CCRF-CEM leukemia, with KM20L2 colon, in the test on LXFL 529 NSCLC, in the test with M14 melanoma and in the test on SN12C renal was over 100 µM in each case. The figures for the TGI with SNB-75 CNS, with SW-620 colon and with UACC-257 melanoma were 86.9 µM, over 100 µM and over 100 µM, respectively.
For `COc1ccccc1C(=O)Nc1ccc(Cl)c(C(=O)OC(C)C)c1`, the TGI in the test on A549 NSCLC was over 100 µM; in the test with CCRF-CEM leukemia, over 92.7 µM; in the test on KM20L2 colon, over 100 µM; in the test with M14 melanoma, over 93.3 µM; with PC-3 prostate it was over 100 µM; in the test with SN12C renal, over 100 µM. Further, the TGI is over 100 µM with SNB-75 CNS, over 100 µM in the test on SW-620 colon and over 77.1 µM in the test on UACC-257 melanoma.
For `[N-]=[N+]=Nc1nnc(CCCCc2nnc(N=[N+]=[N-])o2)o1`, the TGI with A549 NSCLC, with CCRF-CEM leukemia, in the test with KM20L2 colon, in the test with LXFL 529 NSCLC, with M14 melanoma and with SN12C renal was over 100 µM in each case. Further, the TGI in the test on SNB-75 CNS, with SW-620 colon and with UACC-257 melanoma was over 100 µM each time.
In the case of `COc1ccc(C2C(C(=O)O)=C(CO)Oc3cc4c(cc32)OCO4)c(OC)c1` (stereo unspecified), the TGI in the test on A549 NSCLC, in the test on CCRF-CEM leukemia, in the test with KM20L2 colon, in the test with M14 melanoma, in the test with SN12C renal and with SNB-75 CNS was over 100 µM throughout. Also, the TGI with SW-620 colon and with UACC-257 melanoma was over 100 µM in each case.
For the compound `O=c1c2cc(Br)ccc2n(C2OC(CO)C(O)C(O)C2O)c(=S)n1-c1ccccc1` (stereo unspecified), the TGI in the test with A549 NSCLC, in the test with KM20L2 colon, with LXFL 529 NSCLC, in the test on SN12C renal, with SNB-75 CNS and with SW-620 colon was over 100 µM each time. The TGI in the test on UACC-257 melanoma was over 100 µM.
For the compound `Nc1ncnc2c1N=CN(Oc1ccccc1)N2`, the TGI in the test on A549 NSCLC is over 100 µM; in the test on KM20L2 colon, over 100 µM; in the test on LXFL 529 NSCLC it was over 100 µM; in the test with M14 melanoma it was over 100 µM; in the test with SN12C renal it was 43.7 µM; in the test on SNB-75 CNS, over 100 µM. Further, the TGI in the test on SW-620 colon and with UACC-257 melanoma was over 100 µM each time.
Turning to `O=C(Cc1ccccc1)N/N=C(/c1nc2ccc([N+](=O)[O-])cc2[nH]c1=O)C(O)c1ccco1` (stereo unspecified), the TGI in the test with A549 NSCLC, in the test on CCRF-CEM leukemia, with LXFL 529 NSCLC, with M14 melanoma, in the test with SN12C renal and with SNB-75 CNS was over 100 µM each time. In addition, the TGI with SW-620 colon and in the test on UACC-257 melanoma was over 100 µM throughout.
As for `C=CCC(O)c1cc(OC)ccc1OC` (stereo unspecified), the TGI in the test on A549 NSCLC, in the test on CCRF-CEM leukemia, in the test on LXFL 529 NSCLC, in the test on M14 melanoma, in the test on SN12C renal and with SNB-75 CNS was over 100 µM throughout. Also, the TGI in the test on SW-620 colon and in the test with UACC-257 melanoma was over 100 µM each time.
As for `CCOC(=O)C1=C(Nc2cccc3ccccc23)OCC1=O`, the TGI in the test with A549 NSCLC, in the test with CCRF-CEM leukemia, with KM20L2 colon, in the test with LXFL 529 NSCLC, in the test on M14 melanoma and in the test with SN12C renal was over 100 µM each time. For the same compound, the TGI with SNB-75 CNS, in the test with SW-620 colon and in the test with UACC-257 melanoma was over 100 µM throughout.
With `CC(C)=CC1(C)/C(=N\O)C(C)(CC(C)C)C(=O)N1O` (stereo unspecified), the TGI with A549 NSCLC, with CCRF-CEM leukemia, in the test with KM20L2 colon, with LXFL 529 NSCLC, in the test on M14 melanoma and in the test on SN12C renal was over 100 µM throughout. The TGI in the test with SNB-75 CNS, in the test with SW-620 colon and in the test with UACC-257 melanoma was over 100 µM in each case.
As to `CC1=C(C(=O)NCc2ccccc2)C(c2ccc(N(C)C)cc2)C(C(=O)NCc2ccccc2)=C(C)N1`, the TGI in the test with A549 NSCLC, in the test on CCRF-CEM leukemia, in the test with KM20L2 colon, in the test with LXFL 529 NSCLC, in the test on M14 melanoma and with SN12C renal was over 100 µM each time. Moreover, the TGI with SNB-75 CNS, in the test on SW-620 colon and with UACC-257 melanoma was over 100 µM throughout.
Turning to `CC1=CC[C@@H]2C(=O)C=CC=C[C@H]12.[C-]#[O+].[C-]#[O+].[C-]#[O+].[Fe]`, the GI50 is over 100 µM in the test with A549 NSCLC; over 100 µM with CCRF-CEM leukemia; over 100 µM in the test on KM20L2 colon; over 100 µM in the test with M14 melanoma; over 100 µM with SN12C renal; 43.9 µM in the test on SNB-75 CNS. Moreover, the GI50 with UACC-257 melanoma is over 100 µM. Also, the TGI in the test with A549 NSCLC, with CCRF-CEM leukemia, with KM20L2 colon, in the test on M14 melanoma, with SN12C renal and in the test with SNB-75 CNS was over 100 µM in each case. In the test on UACC-257 melanoma, the TGI is over 100 µM.
As for `Cc1cccc(/C=N/N=C(\N)NO)n1`, the TGI with A549 NSCLC is over 100 µM; in the test on CCRF-CEM leukemia it was over 100 µM; in the test on LXFL 529 NSCLC it was 53.1 µM; in the test with M14 melanoma it was over 100 µM; with SN12C renal it was over 100 µM; in the test on SNB-75 CNS, 80.8 µM. Also, the TGI in the test with SW-620 colon and in the test on UACC-257 melanoma was over 100 µM throughout.
